Our source for the IC50 values is PubChem BioAssay AID1645865 (Buhrlage Lab, Dana-Farber Cancer Institute and Novartis …, 2021).

In this experiment the target is Ubiquitin carboxyl-terminal hydrolase 30 (Homo sapiens) (UniProt Q70CQ3). The experiment is described as follows: ubiquitin-specific protease 30 DUB inhibitors, concentration-effect, biochemical, validation of primary actives (AID 1645865). The note with it: purified USP30, Ub-rhodamine cleavage, fluorescence, 2 h.

Active and inactive are the calls of the source.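 How the source made its calls: active means maximal inhibition of the USP30 enzyme reaching 30% or more across the dose series; inactive means the rest.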

Chain of Ubiquitin carboxyl-terminal hydrolase 30 (Homo sapiens) (Q70CQ3 whole entry, looked up): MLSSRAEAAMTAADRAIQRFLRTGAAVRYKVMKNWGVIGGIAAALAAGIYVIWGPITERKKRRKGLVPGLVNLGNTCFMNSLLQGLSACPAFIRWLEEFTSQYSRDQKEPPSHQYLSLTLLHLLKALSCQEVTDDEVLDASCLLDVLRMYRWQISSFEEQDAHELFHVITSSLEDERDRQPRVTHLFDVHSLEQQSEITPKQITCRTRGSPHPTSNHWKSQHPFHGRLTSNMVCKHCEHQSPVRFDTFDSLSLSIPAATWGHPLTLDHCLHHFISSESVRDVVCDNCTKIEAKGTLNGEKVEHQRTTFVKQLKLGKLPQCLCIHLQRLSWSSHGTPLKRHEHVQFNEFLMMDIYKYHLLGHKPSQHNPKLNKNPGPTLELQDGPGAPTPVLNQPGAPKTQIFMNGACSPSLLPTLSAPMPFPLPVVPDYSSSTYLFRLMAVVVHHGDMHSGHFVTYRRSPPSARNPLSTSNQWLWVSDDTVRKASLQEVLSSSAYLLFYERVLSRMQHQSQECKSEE

For `COc1ccc(-c2ocnc2C(=O)Nc2cccc(Cl)c2C)cc1OC`, the IC50 (as a rule, the concentration that inhibits the measured activity by half) is 45.8 µM. Take `O=C(CN1C(=O)COc2ccc(Cl)cc21)Nc1cccc2ncccc12`: the IC50 was > 50 µM (inactive). Take `Cc1ccc(C)c(NC(=O)CCc2nc(CSc3nc4ccccc4o3)no2)c1`: the IC50 is 23.8 µM. In the case of `COc1ccc(CCNC(=O)c2cn(-c3ccc(F)cc3)nn2)cc1OC`, the IC50 is 6.79 µM. For `CC1=C(c2ccc(F)cc2)S(=O)(=O)NC1=NCC(=O)Nc1ccc(F)cc1`, the half-inhibitory concentration (IC50) is 21 µM.

With `N#Cc1c(-c2cccs2)cc(-c2cccs2)[nH]c1=O`, the IC50 was > 50 µM (inactive). Take `Cc1cc(C)c2cc(C(=O)NC3CCN(Cc4ccccc4)CC3)[nH]c2c1`: the IC50 is 8.5 µM.

Take `O=C(Nc1ccc(NS(=O)(=O)c2ccc3c4c(cccc24)CC3)cc1)c1ccccc1`: the IC50 was > 50 µM (inactive).

Take `O=C(CSc1nc2ccncc2[nH]1)Nc1ccc(Br)cc1F`: the half-inhibitory concentration (IC50) is 27.4 µM.

`Cn1c(CCN2CCCC2)nc2cc(NC(=O)c3ccccc3)ccc21`: the IC50 was > 50 µM (inactive). `O=C(NCc1ccc(Cl)cc1)c1ccc(N2CCCS2(=O)=O)cc1`: the IC50 is > 5 µM (inactive). Then `COc1ccc(C(C(=O)NCc2ccccc2)N(C(=O)CCN2CCc3ccccc32)c2ccc(C)c(C)c2)cc1` (configuration not stated), with > 50 µM (inactive); and `COc1cccc2cc(C(=O)Nc3nc(-c4ccncc4)cs3)oc12`, with 0.161 µM. Take `Cc1nc(-c2ccc(-n3cc(C(=O)Nc4cccc(F)c4)c(C)n3)cc2)no1`: the IC50 was 47.7 µM. Take `CCn1c(=N)n(CCOc2ccc(F)cc2)c2ccccc21`: the IC50 was 31.8 µM. For the compound `Cc1ccc(-c2nc(NC(=O)Nc3ccc(Cl)cc3)sc2C)cc1`, the IC50 is 5.88 µM.

With `CCCC(=O)Nc1ccc(SCc2nnc(-c3ccccc3)o2)cc1`, the IC50 was > 50 µM (inactive). With `Cc1ccccc1NC(=O)c1cc(S(=O)(=O)N2CCCCCC2)ccc1Cl`, the IC50 is 23.8 µM. Then `COc1cc2c(=O)n(CCC(=O)NCc3ccco3)c(=O)n(CC(=O)Nc3c(C)cccc3C)c2cc1OC`, with > 50 µM (inactive); and `Cc1cccc(NC(=O)CSc2ncnc3c2sc2nc(CC(C)C)c4c(c23)CCC4)c1`, with 19.6 µM; and `O=C(NCCCN1CCc2ccccc2C1)c1cc2c(s1)CS(=O)(=O)C2`, with > 50 µM (inactive).

For the compound `O=C(CSc1nnc(CNC(=O)c2ccccc2F)o1)Nc1ccc(OC(F)(F)F)cc1`, the IC50 was 26.5 µM. Regarding `COc1ccc(C(=O)Nc2sc3c(c2C(=O)NCc2cccnc2)CCCC3)cc1`, the IC50 is 4.43 µM.

`CCc1ccc2c(c1)[C@]1(C(=O)N2)[C@@H]2C(=O)N(c3ccc(Cl)cc3Cl)C(=O)[C@@H]2[C@@H]2CCCN21`: the IC50 is > 50 µM (inactive). Turning to `COc1cccc(-c2cc(C(=O)N3CCN(c4ccc(N5CCOCC5)nn4)CC3)[nH]n2)c1`, the IC50 was 38.5 µM. As for `COCCNC(=O)c1cc(-c2cn(-c3ccccn3)c(C)n2)n2ccccc12`, the IC50 is > 50 µM (inactive).

Consider `CC(C)OC(=O)c1cc2c(ccn2-c2ccc(F)cc2)n1CC(=O)NC1CCCCC1`, for which the IC50 was > 50 µM (inactive).

As to `CN1CCC(N(C)S(=O)(=O)c2ccc(NC(=O)c3cccc(OCc4ccccc4)c3)cc2)CC1`, the IC50 was 34.3 µM. For the compound `Cc1nn(-c2nc3ccccc3[nH]2)c2c1C(c1cccs1)CC(=O)N2` (configuration not stated), the IC50 is > 50 µM (inactive).

With `COCCCN1CCS(=O)(=O)c2c(Cl)c(F)nc(Oc3ccccc3F)c21`, the IC50 was > 50 µM (inactive). On to `CCOC(=O)Nc1ccc(N2CCn3c(nc4ccccc43)C2)cc1OC`, for which the IC50 is > 50 µM (inactive). For the compound `CCOc1ccc(NC(=O)Cn2cnc(S(=O)(=O)N3CCc4ccccc43)c2)cc1`, the IC50 was 27.4 µM. Then `COc1cccc(C(=O)Oc2ccc3c(=O)c(-c4ccc(OC)c(OC)c4)coc3c2)c1`, with 0.152 µM; and `O=C(c1cc2ccccc2o1)N1CC=C(c2ccccc2)CC1`, with > 50 µM (inactive); and `Cc1c(OCC(=O)Nc2nc3ccccc3[nH]2)ccc2c3c(c(=O)oc12)CCC3`, with 0.148 µM. Regarding `CCCC(=O)N1CCC2(CC1)Nc1ccccc1NC2=O`, the IC50 was > 50 µM (inactive). Take `Cn1c(COc2ccccc2)nnc1SCC(=O)Nc1ccc(N2CCOCC2)cc1`: the IC50 is 20 µM.

`CCOC(=O)c1ccc(NC(=O)c2cnc(N3CCOCC3)nc2)cc1`: the IC50 was > 50 µM (inactive).

On to `CCOc1ccccc1-c1nc(-c2nnn(Cc3ccccc3)c2C)no1`, for which the IC50 is > 50 µM (inactive). Consider `O=C(CCc1ccccc1)N(CC1CCCO1)c1nc2ccccc2s1` (configuration not stated), for which the IC50 is 37.3 µM. Regarding `COc1ccc(CNC(=O)CSc2nc3nc(C)ccc3o2)cc1`, the IC50 is 19.7 µM.

For the compound `CCOc1ccc(CCNC(=O)c2cccc3c2C(=O)N(CCOC)C3)cc1OCC`, the IC50 is > 50 µM (inactive). As to `CCn1c(SCC(=O)N2c3ccccc3CC2C)nnc1-c1ccc2c(c1)OCCO2` (configuration not stated), the IC50 is 23.2 µM.

Turning to `Cc1c(C(=O)Nc2ccc(-c3nnc4n3CCCCC4)cc2)oc2c1ccc1ccccc12`, the IC50 is > 50 µM (inactive).

On to `O=C(Nc1cc(Cl)cc(Cl)c1)c1csnn1`, for which the IC50 was 16 µM. Next, `COc1cccc(NC(=O)C2Cn3ccnc3C3(CCN(C(C)=O)CC3)O2)c1` (configuration not stated): > 50 µM (inactive). `Cc1nnc(NC(=O)C2CCN(c3ccc(S(N)(=O)=O)cc3[N+](=O)[O-])CC2)o1`: the IC50 was 40.9 µM. `O=C(CC1C(=O)N(Cc2ccccc2)c2nc3ccccc3n21)NCCc1ccccc1` (configuration not stated): the IC50 is 19.5 µM. Regarding `COc1ccc(C(C)NC(=O)c2cnc(-c3ccccc3)nc2-c2ccncc2)cc1` (configuration not stated), the IC50 was > 50 µM (inactive).

As to `CCc1ccc(-n2c(=O)c3ccccc3n(CC(=O)NCCC3=CCCCC3)c2=O)cc1`, the IC50 is 6.68 µM. Next, `CN(C)c1cc(-n2cnc(C(=O)NCc3ccccc3Cl)c2)ncn1`: 37.8 µM. For the compound `O=C(Nc1cccc(F)c1)c1ncoc1-c1ccco1`, the IC50 is > 50 µM (inactive). Next, `c1ccc2c(c1)CCc1c-2nc2ccccc2c1N1CCOCC1`: > 50 µM (inactive); `CCOC(=O)c1cnc(C(F)(F)F)nc1Sc1n[nH]c(-c2cccs2)n1`: > 50 µM (inactive). Take `O=C(CSc1nnc(-c2ccncc2)n1Cc1ccccc1)c1ccc2[nH]c(O)cc2c1`: the IC50 is > 50 µM (inactive). `O=c1[nH]c(C2CCN(S(=O)(=O)c3ccc(S(=O)(=O)NC4CCCCC4)cc3)CC2)nc2c1nnn2Cc1c(F)cccc1Cl`: the IC50 is 22.8 µM. With `CO[C@H]1/C=C/OC2(C)Oc3c(C)c(O)c4c(c3C2=O)C2(C=C(NC(=O)/C(C)=C\C=C\[C@H](C)[C@H](O)[C@@H](C)[C@@H](O)[C@@H](C)[C@H](OC(C)=O)C1C)C4=O)OCC(=O)O2` (some centres not stated), the IC50 was > 50 µM (inactive). Next, `CCN(CC)C(=O)CN1CCCC(c2ncncc2-c2cc(C)no2)C1` (configuration not stated): > 50 µM (inactive). Turning to `O=C(COc1nsnc1N1CCOCC1)Nc1ccccc1F`, the IC50 is > 50 µM (inactive). On to `O=C(COC(=O)CCc1ccc(S(=O)(=O)N2CCOCC2)cc1)Nc1ccc2c(c1)OCCO2`, for which the IC50 is > 50 µM (inactive). Regarding `COc1cccc(NC(=O)c2ccc3noc(-c4ccc(Cl)cc4)c3c2)c1`, the IC50 was 32.6 µM. Consider `Cc1cccc(NC(=O)Nc2ccc(C)n(CC(=O)Nc3ccccc3)c2=O)c1`, for which the IC50 is 4.62 µM. Take `Cc1cc(C)nc(-n2nc(C)c3c2NC(=O)CSC3c2ccccc2F)n1` (configuration not stated): the IC50 is 29.5 µM. On to `COc1ccc(Nc2nc3c(S(=O)(=O)c4ccc(C)cc4)nnn3c3ccsc23)c(OC)c1`, for which the half-inhibitory concentration (IC50) is 0.401 µM.

In the case of `CCCCn1c(=O)c(CCC(=O)OCC(=O)Nc2ccc3c(c2)OCCO3)nc2ccccc21`, the IC50 is > 50 µM (inactive). On to `Cc1cc(C(F)(F)F)n2nc(C3CCN(C(=O)c4cnn(C)c4C)C3)cc2n1` (configuration not stated), for which the IC50 is > 50 µM (inactive). `COc1cc(OC)cc(-n2c(=O)c3sccc3n(CC(=O)Nc3ccc(C)cc3)c2=O)c1`: the IC50 was 5.2 µM. Turning to `CCn1ccc2c(cc(C(=O)Nc3ccccc3F)n2C)c1=O`, the IC50 was > 50 µM (inactive). For `Cn1c(=O)cc(SCC(=O)NC2CCN(Cc3ccccc3)CC2)c2ccc(Cl)cc21`, the IC50 is 28.8 µM. As for `O=C(Cn1cnc2ccccc21)Nc1ccc2c(c1)CCC2`, the IC50 was 42.6 µM.

For the compound `CC(C)(C)OC(=O)N1CCN(C(=O)Cn2c(=O)nc(-c3ccccc3)c3ccccc32)CC1`, the IC50 was > 50 µM (inactive).

Take `Cc1nn(-c2ccc(F)cc2)cc1-c1noc(C(=O)NCc2ccccn2)n1`: the IC50 is 27.7 µM. Consider `O=C(Nc1ccc(F)cc1F)NC1Cc2ccccc2C1`, for which the IC50 is 29 µM. For the compound `Cc1cc(C)cc(-n2cnc3cc(C(=O)NCCC4=CCCCC4)ccc32)c1`, the IC50 is > 50 µM (inactive). For `COC1C(O)=C2C(=O)O/C(C)=C/C=C/C=C/C=C/CC(c3ccccc3)NC(=O)/C=C/C=C/C=C\C=C\C2(C)C1O` (configuration not stated), the IC50 is > 50 µM (inactive). Consider `Fc1ccccc1Cc1nc(-c2ccc3nncn3c2)no1`, for which the IC50 is > 50 µM (inactive). `CCN(CCCNC(=O)c1ccc(Cn2c(=O)[nH]c3ccccc3c2=O)cc1)c1ccccc1`: the IC50 is 6.5 µM. As to `Cc1sc(-c2ccc(Cl)nc2)nc1OC(=O)c1ccc(F)cc1F`, the IC50 was 8.06 µM.

With `CCN1C[C@@H]2C[C@]2(c2ccccc2OC)C(=O)c2ncccc21`, the IC50 was > 50 µM (inactive).

For the compound `Cc1ccccc1Cn1cc(SCC(=O)Nc2ccc3c(c2)OCCO3)c2ccccc21`, the IC50 is > 50 µM (inactive). For the compound `O=C(Nc1ccc2c(c1)OCCO2)c1cc(CN2CCOCC2)on1`, the IC50 is > 50 µM (inactive). `Cc1cc(C)n(-c2ccc(C(=O)NCc3ccc(F)cc3)cn2)n1`: the IC50 is 37.4 µM. For `CCOc1ccc2c(c1)c(=O)c(C(=O)c1ccccc1)cn2CC(=O)Nc1ccc2c(c1)OCCO2`, the IC50 is 21.2 µM. In the case of `O=C(NCC1CC1)C1CCCN(c2ccc(-c3ccccc3)nn2)C1` (configuration not stated), the IC50 was > 50 µM (inactive).

For the compound `Cc1csc2ncc(C(=O)N3CCN(c4ccccc4F)CC3)c(=O)n12`, the IC50 was > 50 µM (inactive). On to `N#Cc1cccnc1N1CCN(C(=O)Nc2cccc3ccccc23)CC1`, for which the IC50 is > 50 µM (inactive).

Take `O=C(NCc1ccc2c(c1)OCO2)c1[nH]nc2c1COc1ccccc1-2`: the IC50 was 1.97 µM.
